Molecules are shown by their SMILES. Values after ≈ are worked out from the molar mass of the structure shown. “Also recorded” adds a separate entry of the source.

In one data set the test system is P-388 murine lymphocyte. The following applies: tests conducted by the National Cancer Institute; cited from earlier work.
The next data set concerns MEL-4. Kind of data set: Dose-response study, additional human melanoma cell line. It counts as cell-based. The procedure:
(§1) Moreover, the cytotoxic response mediated by betulinic acid is not exclusively limited to the MEL-2 melanoma cell line.
(§2) The plates were incubated for three days. […] Dose response studies were performed to generate ED50 values.

The test system of a further data set is MEL-1. The description is as above. It counts as cell-based. On the procedure:
as §1, §2

A further data set relates to MEL-3. The description is as above. It counts as cell-based. On the procedure:
as §1, §2

A further data set has as its system BC-1 (breast). Kind of data set: Cytotoxicity against cultured human cancer cells (SRB). It counts as cell-based. The following applies: Homo sapiens, 72 h; three days incubation, SRB; read-out: ED50 BC-1. On the procedure:
as §2

Another data set relates to U373 (glioma). The data set is described as above. It counts as cell-based. The following applies: Homo sapiens, U373 MG, 72 h; three days incubation, SRB; read-out: ED50 U373. The procedure: as §2
Another data set concerns ZR-75-1 (breast). The data set is described as above. It counts as cell-based. Particulars: Homo sapiens, ZR-75-1, 72 h; three days incubation, SRB; read-out: ED50 ZR 75-1. The procedure:
as §2

The subject of data set [1] is KB (human oral epidermoid carcinoma). Described as above. It counts as cell-based. On the procedure: as §2
For another data set, the system named is LNCaP (prostate). The description is as above. It counts as cell-based. Particulars: Homo sapiens, LNCaP, 72 h; three days incubation, SRB; read-out: ED50 LNCaP. On the procedure:
as §2

The subject of a further data set is A431 (squamous cells). The data set is described as above. It counts as cell-based. The following applies: Homo sapiens, A-431, 72 h; three days incubation, SRB; read-out: ED50 A431. On the procedure: as §2
A further data set concerns HT-1080 (sarcoma). The data set is described as above. It counts as cell-based. The following applies: Homo sapiens, HT-1080, 72 h, three days incubation, read-out: ED50 HT-1080. The procedure:
as §2

In the next data set the test system is COL-2 (colon). The data set is described as above. It counts as cell-based. Particulars: Homo sapiens, Col2, 72 h; three days incubation, SRB; read-out: ED50 COL-2. The procedure: as §2
Another data set has as its system LU-1 (lung). The data set is described as above. It counts as cell-based. Particulars: Homo sapiens, 72 h, three days incubation, read-out: ED50 LU-1. The procedure:
as §2

A short description of a further data set: Solubility in water. It counts as physicochemical. The following applies: listed as betulinic acid.
For data set [2], the system named is human melanoma cells (MEL-2). Kind of data set: In vivo activity against established MEL-2 melanomas in athymic mice. Particulars: treatment from day 13, IP every third day; betulinic acid/PVP 250 mg/kg/dose, DTIC 4 mg/kg/dose. On the procedure:
Next, in vivo testing of betulinic acid was performed on established melanomas. In this study, treatment was withheld until day 13, by which time a palpable tumor mass was present in all mice.
In particular, with respect to FIG. 2, four-week-old athymic mice were injected with 5×10^8 MEL-2 cells subcutaneously in the right flank. Four treatment groups of five mice each were studied. In one group, the mice received 250 mg/kg/dose of IP betulinic acid/PVP every third day for six total doses initiated the day following tumor cell injection. The control group received 0.5 ml IP saline. A DTIC treatment group received 4 mg/kg/dose IP DTIC every third day from day 13 to day 28 of the study. The betulinic acid treatment group received 250 mg/kg/dose IP betulinic acid/PVP every third day from day 13 to day 27. The control and DTIC-treated mice were sacrificed and autopsied on day 36 due to their large tumor burden. The remaining mice were sacrificed and autopsied on day 41.

Data set [3] has as its system human melanoma cells (MEL-2). Kind of data set: In vivo activity against unestablished MEL-2 tumors in athymic mice. Details: species or system athymic (nude) mice. On the procedure:
To test the in vivo ability of betulinic acid to serve as an antineoplastic agent against malignant melanoma, a series of studies was performed with athymic (nude) mice injected subcutaneously with human melanoma cells (MEL-2). The initial study investigated the activity of betulinic acid against unestablished tumors. Treatment with betulinic acid began on day 1, i.e., 24 hours, following tumor cell injection. […] Such a discovery is important for individuals who are predisposed to melanoma due to hereditary or environmental factors.
In particular, the data plotted in FIG. 1 was derived from experiments wherein four week old athymic mice were injected subcutaneously in the right flank with 3.0×10^8 UISO MEL-2 cells. UISO MEL-2 is a cell line derived from metastatic melanoma from human pleural fluid. Drug treatment was initiated on the day following tumor cell injection and continued every fourth day for a total of six doses. Four control animals received 0.5 ml intraperitoneal (IP) of PVP control solution, while treated animals (4 per group) received 50, 250 or 500 mg/kg/dose IP betulinic acid/PVP in deionized H2O. Betulinic acid was coprecipitated with PVP to increase solubility and bioavailability. The mice were weighed, and the tumors measured with a micrometer every other day throughout the study. […]

Take `C=C(C)[C@@H]1CC[C@]2(C(=O)O)CC[C@]3(C)[C@H](CC[C@@H]4[C@@]5(C)CC[C@H](O)C(C)(C)[C@@H]5CC[C@]43C)[C@@H]12` [Compound 10, 3β-hydroxy-lup-20(29)-ene-28-oic acid]: in the data set with P-388 murine lymphocyte, the “antitumor activity, P-388” value is “activity was not supported”. The “ED50 MEL-4” value in the data set on MEL-4 was determined as 4.8 µg/mL (≈ 10.5 µM). For the same compound, the “ED50 MEL-1” value in the data set on MEL-1 turned out to be 1.1 µg/mL (≈ 2.41 µM). Further, the “ED50 MEL-3” value in the data set on MEL-3 was 3.3 µg/mL (≈ 7.23 µM). For the same compound, the IC50 in the data set with BC-1 (breast) was greater than 20 µg/mL; with U373 (glioma), greater than 20 µg/mL; with ZR-75-1 (breast), greater than 20 µg/mL; in data set [1] (Homo sapiens, 72 h, three days incubation, SRB, Table 1, read-out: ED50 KB), greater than 20 µg/mL; in the data set with LNCaP (prostate), greater than 20 µg/mL; with A431 (squamous cells), greater than 20 µg/mL. Also, the IC50 with HT-1080 (sarcoma), in the data set on COL-2 (colon) and in the data set with LU-1 (lung) was greater than 20 µg/mL in each case. Also, the “ED50 (Std. Dev.) KB” value in data set [1] (derivatives, Tables 2-6) is greater than 20 µg/mL. Moreover, in “Solubility in water”, the solubility in water result is “poor solubility in water; also recorded: low water solubility”. In data set [2], the “tumor growth, established MEL-2 tumors (FIG. 2)” value is reported as “successfully abrogated tumor growth; also recorded: significantly less than that observed in the DTIC-treated animals”. Also, the “tumor development, MEL-2, treatment from the day following cell injection (FIG. 2)” value in data set [3] (250 mg/kg/dose IP betulinic acid/PVP every third day, six doses, p=0.0001) is recorded as “significantly inhibited tumor development”. In addition, the “inhibition of tumor growth, nonestablished MEL-2 tumors (FIG. 1)” value in [3] (50, 250, 500 mg/kg/dose IP as betulinic acid/PVP, every fourth day, six doses from day 1, p 0.001 each dose versus control) is reported as “effective inhibition of tumor growth; also recorded: greater inhibition of tumor growth at the highest dose”.

The values above are taken from US7414042B2, “Method and composition for selectively inhibiting melanoma” (The Board of Trustees of The University of Illinois, priority 1995, dated 2008).
